Where “and” joins values, the source holds several entries; their conditions need not be identical. Equal values may be shown once.
T1: Solute carrier family 22 member 2 (Rattus norvegicus, UniProt Q9R0W2)
T1 sequence (Q9R0W2 whole entry): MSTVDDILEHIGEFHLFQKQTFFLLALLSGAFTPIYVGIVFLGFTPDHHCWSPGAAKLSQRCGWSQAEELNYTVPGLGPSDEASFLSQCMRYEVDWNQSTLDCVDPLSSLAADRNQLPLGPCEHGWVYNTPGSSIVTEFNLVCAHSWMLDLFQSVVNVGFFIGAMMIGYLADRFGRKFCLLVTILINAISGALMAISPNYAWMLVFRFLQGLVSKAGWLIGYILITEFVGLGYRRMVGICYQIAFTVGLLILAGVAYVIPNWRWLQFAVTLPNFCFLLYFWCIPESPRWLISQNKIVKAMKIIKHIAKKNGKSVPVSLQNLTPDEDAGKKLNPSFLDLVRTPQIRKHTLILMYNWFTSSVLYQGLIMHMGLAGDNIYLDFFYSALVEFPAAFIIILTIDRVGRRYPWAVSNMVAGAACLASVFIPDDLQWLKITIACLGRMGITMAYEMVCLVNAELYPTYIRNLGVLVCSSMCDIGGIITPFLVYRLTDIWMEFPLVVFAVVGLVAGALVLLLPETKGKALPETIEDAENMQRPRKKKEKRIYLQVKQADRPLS

B1: Solute carrier family 22 member 2 (Rattus norvegicus) (protein)
chain: T1 sequence (Q9R0W2 whole entry)

Legend:
[1] = molecular target: T1, Solute carrier family 22 member 2; assay: TP_TRANSPORTER: inhibition of Dopamine uptake (Dopamine: 0.1 uM, Cocaine: 1 uM) in OCT2-expressing HEK293 cells; type: functional, cell-based; conditions: human, hek293, 1 µM
[2] = molecular target: T1, Solute carrier family 22 member 2; assay: TP_TRANSPORTER: inhibition of Adrenaline uptake in OCT2-expressing HEK293 cells; type: functional, cell-based
[3] = molecular target: T1, Solute carrier family 22 member 2; assay: TP_TRANSPORTER: inhibition of Serotonin uptake in OCT2-expressing HEK293 cells; type: functional, cell-based
[4] = molecular target: T1, Solute carrier family 22 member 2; assay: TP_TRANSPORTER: inhibition of Noradrenaline uptake in OCT2-expressing HEK293 cells; type: functional, cell-based
[5] = molecular target: T1, Solute carrier family 22 member 2; assay: TP_TRANSPORTER: inhibition of Dopamine uptake in OCT2-expressing HEK293 cells; type: functional, cell-based
[6] = molecular target: T1, Solute carrier family 22 member 2; assay: TP_TRANSPORTER: inhibition of Dopamine uptake (Dopamine: 0.1 uM, O-Methylisoprenaline: 30 uM) in OCT2-expressing HEK293 cells; type: functional, cell-based; conditions: human, hek293, 30 µM
[7] = substrate: NCCc1ccc(O)c(O)c1; assay: cells, lysate or membranes named
[8] = substrate: NC[C@H](O)c1ccc(O)c(O)c1; assay: cells, lysate or membranes named
Description: (§1) TP_TRANSPORTER: uptake in OCT2-expressing HEK293 cells

[9] = substrate: CNC[C@H](O)c1ccc(O)c(O)c1; assay: cells, lysate or membranes named
[10] = substrate: NCCc1c[nH]c2ccc(O)cc12; assay: cells, lysate or membranes named
Description: as §1

| Molecule | Ki [2] [nM] | Ki [3] [nM] | Ki [4] [nM] | Ki [5] [nM] | other results |
| --- | --- | --- | --- | --- | --- |
| COC(=O)[C@H]1[C@@H](OC(=O)c2ccccc2)C[C@@H]2CC[C@H]1N2C [COCAINE] |  |  |  |  | Activity [1]: is not an inhibitor [-] |
| C[C@]12C[C@H](O)[C@H]3[C@@H](CCC4=CC(=O)CC[C@@]43C)[C@@H]1CC[C@@H]2C(=O)CO [CORTICOSTERONE] | 420 | 605 | 460 | 390 |  |
| CC(C)N1/C(=C\c2cc[n+](C(C)C)c3ccccc23)C=Cc2ccccc21 [DISPROCYNIUM24] | 12 | 13 | 13 | 5.1 |  |
| COc1cc(C(O)CNC(C)C)ccc1O (centres undefined) [METIPRENALINE] |  |  |  |  | Activity [6]: is not an inhibitor [-] |
| B1 |  |  |  |  | Km [7]: 2.1 mM; Km [8]: 11 mM and 4.4 mM; Km [9]: 1.9 mM; Km [10]: 3.6 mM |

— ChEMBL document CHEMBL2074405, “Transport of monoamine transmitters by the organic cation transporter type 2, OCT2” (J Biol Chem, 1998)
